Like-named read-outs stand apart in the source and are kept apart here. Where only a bound is given, the exact number is not on record here.

One series deals with T1, RORγ (Homo sapiens, UniProt P51449).
T1 sequence (P51449 97-518): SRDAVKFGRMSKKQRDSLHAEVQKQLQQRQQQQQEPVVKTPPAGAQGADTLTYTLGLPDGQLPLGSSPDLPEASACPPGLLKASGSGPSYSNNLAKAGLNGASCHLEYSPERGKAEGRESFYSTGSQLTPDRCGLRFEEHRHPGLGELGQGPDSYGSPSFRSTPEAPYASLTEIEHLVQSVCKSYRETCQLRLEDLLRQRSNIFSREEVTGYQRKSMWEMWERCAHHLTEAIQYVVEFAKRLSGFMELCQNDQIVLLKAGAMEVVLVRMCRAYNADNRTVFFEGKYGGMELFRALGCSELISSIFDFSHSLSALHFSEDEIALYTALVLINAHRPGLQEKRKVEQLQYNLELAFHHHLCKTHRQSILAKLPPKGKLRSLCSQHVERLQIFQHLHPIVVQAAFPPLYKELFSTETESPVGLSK
Briefly: In vitro test for inhibitory activity on RORγ: luciferase reporter cells expressing chimeric Gal4-RORγ receptor. Type of series: cell-based. Particulars: Gal4 hybrid receptor luciferase reporter, HEK293, 24 hours incubation. The method, then: Reporter cells: Reporter cells expressing a chimeric RORγ receptor were used in this experiment. The chimeric RORγ receptor was a RORγ receptor formed by replacing the N-terminal DNA-binding domain of the natural RORγ protein with the DNA-binding domain of the yeast Gal4 protein. The luciferase reporter gene was located at the downstream of the Gal4 activating sequence (UAS).
Step 1: Reporter cells were prepared into a cell suspension using INDIGO's Cell Recovery Medium (CRM, containing 5% fetal bovine serum treated by activated carbon). The cell suspension was dispensed into a white 96-well culture plate in a volume of 100 μl/well.
Step 2: Eight concentration gradients were set for each test compound, and the test was conducted twice at each concentration. Prior to the experiment, the main stock solution of the test compound was serially diluted with DMSO, so as to formulate solutions with “1000×-concentration” relative to each of the final test concentrations. Subsequently, the compound was further diluted with the cell recovery medium (CRM, containing 5% fetal bovine serum treated by activated carbon), so as to formulate test working solutions with “2×-concentration”. As per a volume of 100 μl/well, the test working solutions were respectively added to the test wells in which the reporter cells were added in advance, so as to obtain the desired final test concentrations. The residual concentrations of DMSO in all test wells were 0.1%. The test plate was incubated in a cell incubator for 24 hours. Conditions of the incubator were set as follows: temperature: 37° C., 5% CO2, humidity: ˜85%.
Step 3: After 24 hours of incubation, the liquid in the culture plate was discarded, 100 μl of luciferase detection reagent was added to each test well, and then, the fluorescence intensity (Relative Luminescence Units, RLUs) in each well was read.
In this test, the reference compound ursolic acid was used as an internal standard of a positive compound to verify the inhibitory effect of the test compound on RORγ in reporter cells of a specific batch. The tests for the reference compound and the test compound were performed simultaneously, and the reference compound and the test compound were thus exposed to the same test reagent and environment. The reference compound group containing 0.1% DMSO as solvent was used as an internal standard of a positive compound, so as to determine the effect of the solvent DMSO on the test results and calculate the percentage reduction in RORγ activity.
The test data was managed and archived by Microsoft Excel, and mean±standard deviation (SD) of RLU, fold of reduction, inhibition rate, coefficient of variation (% CV) and Z factor were calculated. Coefficient of variation (% CV): 100×(SD/Ave. RLU); Fold of reduction for inverse agonist: [Ave. […]
For orientation: A reporter such as luciferase makes a cellular process visible.

Series [1] in a line: Pharmacokinetic evaluation in mice after single IV and PO administration. Type of series: in vivo. Conditions: Balb/c mice, plasma; for MRT inf: read-out: MRT0-inf; for MRT last: read-out: MRT0-last. Details: AUC(0-t) / AUC(0-inf): concentration or dose not given beside the values. The procedure: Balb/c mice (female, 15 to 30 g, 7- to 9-week old, Shanghai Lingchang) were used to test in vivo pharmacokinetics of compounds. The experimental method was as follows.
The pharmacokinetic characteristics of the compounds were tested by standard protocols after the compounds were administered to rodents by intravenous injection and oral administration. In the experiment, candidate compounds were formulated into clear solutions and administered to mice by a single intravenous injection and a single oral administration. The vehicle for intravenous injection (IV) was a mixed solvent of 5% of DMSO and 95% of 10% Cremophor EL, and the vehicle for oral administration (PO) was a mixed solvent of 1% tween 80, 9% PEG400 and 90% water. Whole blood samples within 48 hours were collected, and centrifuged at 3000 g at 4° C. for 15 minutes. The supernatant was separated to obtain the plasma sample, to which an acetonitrile solution containing an internal standard was added to precipitate the proteins, and the volume of the acetonitrile solution was 20 times that of the plasma sample. The supernatant was obtained by centrifugation, an equal volume of water was added thereto, and the mixture was centrifuged again to get the supernatant for sample injection. Plasma concentrations were quantitatively analyzed by an LC-MS/MS analytical method, and pharmacokinetic parameters, such as peak concentration, peak time, clearance rate, half-life, area under the concentration-time curve, and bioavailability, were calculated.
Of these, “10% Cremophor EL” referred to a deionized aqueous solution of Cremophor EL with a volume concentration of 10%. For example, taking the formulation of a 100 ml solution as an example, 10 ml Cremophor EL was taken and deionized water was added thereto, the mixture was well stirred, and then deionized water was added until the total volume was 100 ml. “Mixed solvent of 5% of DMSO and 95% of 10% Cremophor EL” referred to a mixed solvent comprised of DMSO and 10% Cremophor EL, in which […], and 10% Cremophor EL accounted for 95% of the volume of the mixed solvent. “Mixed solvent of 1% tween 80, 9% PEG400 and 90% water” meant that the volumes of tween 80, PEG400 and water accounted for 1%, 9% and 90% of the volume of the mixed solvent, respectively.

A word on the EC50: it is the concentration that produces a half-maximal response. As a reminder, the AUC(0-inf) is the area under the concentration-time curve extrapolated to infinity. The term AUC(0-t) denotes the area under the concentration-time curve up to a stated or last time point. In general, half-life refers to the time needed for the level to fall by half in the phase considered. By Cmax is commonly meant the highest concentration seen after dosing. The term Tmax denotes the time at which the peak concentration occurs. As usually defined, the bioavailability is dose-corrected exposure relative to a reference, in per cent. Consider `CCS(=O)(=O)c1ccc(CNC(=O)c2cc3c(s2)C(C(C)C)N(C[C@H]2CC[C@H](C(F)(F)F)CC2)C3)nc1` (single isomer, unassigned) [Example 1], for which, at RORγ (Specific value of the concentration required for 50% inhibition (EC50) of RORγ), the EC50 amounted to 15.8 nM. This compound also had a concentration giving a half-maximal response (EC50) on RORγ (Value of the concentration required for 50% Inhibition (EC50) of RORγ) of less than 100 nM. In series [1] (IV), this compound returned an AUCExtra of 6.28%, an AUMCExtra of 27.8% and a Tlast of 24.0 h. In series [1] (PO), this compound gave an AUCExtra of 12.1%, an AUMCExtra of 41.3% and a Tlast of 24.0 h. In series [1] (female, mouse, IV), this compound showed an AUC(0-inf) of 3.92 µM·h, an AUC(0-t) of 3.67 µM·h, a C0 of 955 nM and a clearance of 7.62 mL/min/kg. Further, in series [1] (female, mouse, IV), the half-life was 6.84 h, the MRT inf stood at 7.66 h and the MRT last worked out at 5.91 h. The Vd in series [1] (female, mouse, IV, read-out: Vdss) turned out to be 3.5 L/kg. For the same compound, in series [1] (female, mouse, PO), the AUC(0-inf) amounted to 35.1 µM·h, the AUC(0-t) was found to be 30.9 µM·h, the concentration peaked (Cmax) at 3520 nM and the Tmax was determined as 1 h. Also, in series [1] (female, mouse, PO), the bioavailability is 89.7%, the half-life was 8.7 h, the MRT inf worked out at 10.8 h and the MRT last turned out to be 7.19 h.
